One block for each molecule: values may come before it.
What was measured:
[1] = system: IMR32 human neuroblastoma xenograft; experiment: IMR32 human neuroblastoma xenograft model; type: in vivo, mice; details: single agent, q14dx2; CROMOC36 32 mg/Kg s.c.; doxorubicin 8 mg/kg i.v.
Excerpt: FIG. 11: IMR32 s.c. implanted. Treatment on xenograft mice with advanced tumors (volume >50 mm^3). Variation in tumor volume expressed as percentage with respect to initial volume (day 0; designated as 100%). Final measurements for vehicle (PBS) and Doxorubicin groups were taken on day 42. For the remaining groups, final measurements were taken on day 63, the termination day of the experiment. Growth reduction compared to controls on day 42 (p<0.01).
The aim of this study was to assess the in vivo efficacy of CROMOC36 on a IMR32 human neuroblastoma xenograft model. CROMOC36 was administered subcutaneously (s.c.) at intervals of two weeks (q14dx2) at two different doses (32 mg/Kg) and also in combination with doxorubicin administered intravenously (i.v.) (32/kg CROMOC36+4+4 mg/Kg doxorubicin, s.c and i.v., q14dx2). Doxorubicin was also used alone as a reference compound (8 mg/kg, i.v., q14dx2). Vehicle was PBS.

[2] = system: M5076 ovarian reticulum sarcoma tumor cell line; experiment: M5076 artificial hepatic metastasis model, i.v. route; details: CROMOC36 16 mg/kg i.v. q7dx3; Doxorubicin 6 mg/kg q4dx3 (MTD)
[3] = system: murine Lewis lung carcinoma; experiment: Lewis lung carcinoma (LLC) model, primary tumor growth and metastasis
Protocol: The efficacy of CROMOC36 on the Lewis lung carcinoma (LLC) model, was selected for testing the activity of CROMOC36 against primary tumor growth and metastasis formation. CROMOC36 was tested as a single agent and in combination with Cyclophosphamide (CYPP). In addition, single-agent CYPP was used as a reference compound, allowing comparison of the efficacy of CROMOC36 with a commonly used antitumor agent (summarized in FIG. 9).

[4] = system: HCT116 human colon carcinoma xenograft with null p53 (HCT116 p53−/−); experiment: HCT116 p53-/- xenograft, single agent and combination with cisplatin or vincristine; type: in vivo, female athymic nude mice; details: for % TGD (tumor growth delay) / time to study endpoint (TTE): endpoint tumor volume of 1000 mm^3, CROMOC36 as single agent or in combination; for time to study endpoint (TTE): control Day 23; for tumor growth inhibition: single-agent reference, q7dx5 (CDDP 4 mg/kg, VCR 2 mg/kg)
Protocol: A study was conducted to evaluate the efficacy and tolerability of CROMOC36 against an HCT116 human colon carcinoma xenograft model with null p53 (HCT116 p53−/−) in female athymic nude mice. CROMOC36 was administered subcutaneously (s.c.) three times at intervals of two weeks (q14dx3) as a single agent or in combination with cisplatin (CDDP) at 4 mg/kg or vincristine (VCR) at 2 mg/kg which were both administered five times at intervals of one week (q7dx5). CROMOC36 was tested at 32 mg/kg or using a decreasing dosage of 32-16-16 mg/kg. CDDP and VCR were also administered as single agents to allow comparison of the efficacy of CROMOC36 with commonly used anticancer drugs. The dose and schedule of CDDP and VCR treatments remained the same when tested as single agents or in combination with CROMOC36. […] Efficacy was also evaluated by measuring the tumor growth delay (TGD) and the number of regression responses.

[5] = system: human pancreatic tumor cell lines; experiment: Propidium iodide based monolayer proliferation assay, panel of 13 human pancreatic tumor cell lines; details: Homo sapiens, 96 h; 13 pancreatic cell lines, four days treatment; read-out: geomean IC50
Protocol: (§1) Monolayer Assay Propidium Iodid (PI). Cells were harvested from exponential phase cultures, counted and depending on the cell line 3.000 to 20.000 cells were plated in 96-well flat-bottom microtiter plates After a 24 h recovery period to allow cells to resume exponential growth, 10 μl of culture medium (four control wells/plate) or culture medium with the test compound were added by a liquid handling robotic system and treatment continued for four days. Compounds were applied in half-log increments at 10 concentrations in duplicate. Three independent experiments were performed. Cells were then washed with 200 μl PBS to remove dead cells followed by addition of 200 μl of a solution containing 7 μg/ml propidium iodide (PI) and 0.1% (v/v) Triton X-100. After an incubation period of 1-2 h at room temperature, fluorescence (FU) was measured using the Cytofluor 4000 microplate reader (excitation λ=530 nm, emission λ=620 nm) to quantify the amount of attached viable cells. Concentrations required for 50% inhibition of cell growth (IC50) were calculated by non-linear regression (log[conc. of inhibitor]versus response (% T/C)) using the analysis software GraphPad Prism®, Prism 5 for windows, version 5.01 (GraphPad Software Inc., CA).
CROMOC36—in vitro activity Human pancreatic carcinoma cell lines. The aim of this study was to investigate the antitumor activity of CROMOC36 in vitro on a panel of 13 human pancreatic tumor cell lines. Antitumor activity was assessed after four days of CROMOC36 treatment using a propidium iodide based monolayer proliferation assay. Up to four experiments were performed in each cell line, testing CROMOC36 at ten concentrations in half-log increments up to 1 μM. Taxol, an antitumor agent commonly used for the treatment of pancreatic cancer, was used as a reference compound and tested in half-log steps up to 0.3 μM.

[6] = system: Osteosarcoma (U2OS) cell; experiment: Monolayer Sulphorhodamine B (SRB) staining assay, 72 hours, preCROMOC-DDM fusion molecules; type: cell-based, human; details: CPP fused to preCROMOC
Protocol: Cells were harvested from exponential phase cultures, and depending on the cell line 10.000 to 30.000 cells were plated in 96-well flat-bottom microtiter plates. After a 24 h recovery period to allow cells to resume exponential growth, supernatant was discarded and 100 μl of culture medium (eight control wells/plate) or culture medium with the test compound were added by a liquid handling robotic system (Microlab® Starlet, Hamilton) and treatment continued for 72 hrs. Compounds were applied at 9 concentrations eight wells/concentration). At least three independent experiments were performed. For SRB staining, cells were fixed with SRB01 for 1h at 4° C. (final concentration of TCA=10%) washed with a plate washer (Hydroflex, Tecan©) for five times with H2O; and stained with 100 μl of SRB02 at room temperature for 10 min following 4 washes in SRB03 and finally 100 μl of developer solution SRB04 for 5 minutes with shaking. Optical density was assessed using a plate-reader (Sunrise, Tecan©) at 540 nm. Concentrations required for 50% inhibition of cell growth (IC50) were calculated by non-linear regression (log[conc. of inhibitor] versus response (% T/C)) using the analysis software GraphPad Prism®, Prism 5 for windows, version 5.01 (GraphPad Software Inc., CA). (SRB Buffers FIG. 25).

[7] = system: HEPG2; experiment: Monolayer assay, 96h treatment, HEPG2; type: cell-based, human; details: Homo sapiens; HEPG2, 96h treatment
Protocol: as §1
(§2) CROMOC36—in vitro activity Human hepatocellular carcinoma cell lines IC50 values of CROMOC36 and Sorafenib, 96h treatment. […]

[8] = system: Human hepatocellular carcinoma cell lines; experiment: Monolayer assay, human hepatocellular carcinoma cell lines, 96h treatment (geomean of three lines); type: cell-based; details: Homo sapiens; three HCC cell lines, 96h treatment
Protocol: as §1
CROMOC36—in vitro activity Human hepatocellular carcinoma cell lines IC50 values of CROMOC36 and Sorafenib, 96h treatment. […] The individual results for CROMOC36 are included in FIG. 24. […] The individual results for Sorafenib are included in (FIG. 24).

[9] = system: HEP3B; experiment: Monolayer assay, 96h treatment, HEP3B; type: cell-based, human; details: Homo sapiens
Protocol: as §1, §2

[10] = system: LIXF 575L; experiment: Monolayer assay, 96h treatment, LIXF 575L; type: cell-based, human; details: Homo sapiens
Protocol: as §1, §2

[11] = system: human colon carcinoma with null p53 (HCT116 p53−/−) xenograft; experiment: HCT116 p53-/- xenograft, CROMOC36 versus nuclease impaired CROMOC60; type: in vivo, mouse; details: s.c. 4 mg/kg on days 0, 1, 2, 3, 6, 7, 8, 9, 10, 20, 22, 24
Protocol: FIG. 7: HCT116 p53−/− human colon carcinoma xenograft. Treatment on advanced tumors (volume >50 mm^3). Dose: CROMOC36 4 mg/kg; CROMOC60 4 mg/kg. Treatment: s.c. administration on day 0, 1, 2, 3, 6, 7, 8, 9, 10, 20, 22, 24.
A study was conducted to test the antitumor efficacy of CROMOC36 on an advanced human colon carcinoma with null p53 (HCT116 p53−/−) xenograft model and compare it to a vehicle or a nuclease impaired version CROMOC60 treatment group. CROMOC60 is no more catalytically active as a nuclease but is able to be transported to the nucleus of a cell. This study was also designed to proof that the active principle of the tumor growth inhibiting activity of CROMOC is the nuclease activity in vivo. CROMOC36 and CROMOC60 were both administered subcutaneously (s.c.) at 4 mg/kg dose on the days 0, 1, 2, 3, 6, 7, 8, 9, 10, 20, 22, 24. […] This also proofs that CROMOC36 can serve as a valid DNA DSB reagent.

Molecule: COc1cccc2c1C(=O)c1c(O)c3c(c(O)c1C2=O)C[C@@](O)(C(=O)CO)C[C@@H]3O[C@H]1C[C@H](N)[C@H](O)[C@H](C)O1 [Doxorubicin, reference compound]
tumor growth inhibition (TGI) compared to controls [1]: 10% | % ILS (mean survival time versus control group) [2]: 32%

Molecule: O=P1(N(CCCl)CCCl)NCCCO1 (centres unmarked) [CYPP, Cyclophosphamide, reference compound]
inhibition of number of metastases ([3]; CYPP single agent, 180 mg/kg): 62% | tumor growth inhibition (TI), primary tumor ([3]; single agent, CROMOC36 s.c. q2dx5): 78.6%

Molecule: CC[C@]1(O)C[C@H]2CN(CCc3c([nH]c4ccccc34)[C@@](C(=O)OC)(c3cc4c(cc3OC)N(C=O)[C@H]3[C@@](O)(C(=O)OC)[C@H](OC(C)=O)[C@]5(CC)C=CCN6CC[C@]43[C@@H]65)C2)C1 [VCR, vincristine, reference compound]
% TGD (tumor growth delay) [4]: 52% | time to study endpoint (TTE) [4]: 35 days | tumor growth inhibition [4]: 45.4%

IC50 [5]: 0.00199 µM
Molecule: CC(=O)O[C@H]1C(=O)[C@@]2(C)[C@H]([C@H](OC(=O)c3ccccc3)[C@]3(O)C[C@H](OC(=O)[C@H](O)[C@@H](NC(=O)c4ccccc4)c4ccccc4)C(C)=C1C3(C)C)[C@]1(OC(C)=O)CO[C@@H]1C[C@@H]2O [Taxol, reference compound]

Molecule: GNSGSGKKKKKGKGSGLGSGKKKDPLGSGLGSGKKKKKGKGSGLGSGKKKDPLGST (peptide, DDM36)
activity in the SRB assay compared with TAT, Pentratin, and Transportan [6]: orders of magnitude higher activity

IC50 [7]: 5.97 µM | IC50 [8]: 4.68 µM | IC50 [9]: 2.83 µM | IC50 [10]: 6.07 µM
Molecule: CNC(=O)c1cc(Oc2ccc(NC(=O)Nc3ccc(Cl)c(C(F)(F)F)c3)cc2)ccn1 [Sorafenib, reference compound]

Molecule: [NH2][Pt]([NH2])([Cl])[Cl] [CDDP, cisplatin, reference compound]
% TGD (tumor growth delay) [4]: 48% | time to study endpoint (TTE) [4]: 34 days | tumor growth inhibition [4]: 47.2%

B1: CROMOC60: nuclease impaired version; no more catalytically active as a nuclease but able to be transported to the nucleus (protein)
chain: MSHPDLNKLLELWPHIQEYQDLALKHGINDIFQDNGGKLLQVLLITGLTVLPGREGNDAVDNAGQEYELKSINIDLTAGFSTHHHMNPVIIAKYRQVPWIFAIYRGIAIEAIYRLEPKDLEFYYDKWERKWYSDGHKDINNPKIPVKYVMEHGTKIYGSGGSGGSSHPDLNKLLELWPHIQEYQDLALKHGINDIFQDNGGKLLQVLLITGLTVLPGREGNDAVDNAGQEYELKSINIDLTAGFSTHHHMNPVIIAKYRQVPWIFAIYRGIAIEAIYRLEPKDLEFYYDKWERKWYSDGHKDINNPKIPVKYVMEHGTKIYGNSGSGKKKKKGKGSGLGSGKKKDPLGSGLGSGKKKKKGKGSGLGSGKKKDPLGST
modifications: peptide, CROMOC60
progression of HCT116 p53−/− human colon carcinoma as compared to vehicle control [11]: not

Source: patent publication US20250295796A1, “CELL PENETRATING POLYPEPTIDES (CPPS) AND THEIR USE IN HUMAN THERAPY” (RDP PHARMA AG, priority 2021, published 2025)
